In patent publication US8088936B2, “Leukotriene B4 inhibitors” (Hoffman-La Roche Inc., priority 2009, dated 2012):
pIC50: −log10 of the molar value.

Tested on: Human leukemia HL-60 cells endogenously expressing BLT1 and BLT2 receptors
Assay: Ca2+ flux assay for LTB4 antagonist assay (HL-60 FLIPR)
Assay type: cell-based
Details: retinoic acid induced HL-60 cells, inhibition of LTB4-induced Ca2+ flux, 30 min preincubation; read-out: LTB4 antagonism (HL-60 FLIPR)
Description: Assay of Compounds for Inhibition of LTB4 Activity
Ca^2+Flux Assay for LTB4 Antagonist Assay
Human leukemia HL-60 cells endogenously expressing BLT1 and BLT2 receptors were cultured in RPMI-1640 medium supplemented with 20% fetal bovine serum, 2 mM glutamine, 100 U/ml penicillin and 100 ug/ml streptomycin.
Seventy two hours prior to experiment cells are counted using ViaCount reagent, centrifuged and resuspended at 2.0×10^5 cells/ml density with the complete growth media containing 1 μM Retinoic Acid (Sigma).
On a day of the experiment loading buffer (Calcium-3 Assay Kit, Molecular Devices) was prepared by dissolving the contents of one vial (Express Kit) into 500 ml Hank's Balanced Salt Solution containing 20 mM HEPES and 5 mM probenecid. Equal volume of the loading buffer was mixed with the replacement buffer (Hank's Balanced Salt Solution containing 20 mM HEPES, 0.05% BSA and 5 mM probenecid). Retinoic Acid induced HL-60 cells were counted using ViaCount reagent, centrifuged and resuspended at 2.0×10^6 cells/ml density with the loading buffer/replacement buffer, dispensed into 384 well black/clear microplates (Falcon) (25 μl/well) and placed in a 37° C./5% CO2 incubator for 1 hour.
During the incubation, test compounds were prepared at 6× the desired concentration in HBSS/20 mM HEPES/0.05% BSA as well as LTB4 (Biomol) was prepared at 2.2× concentration in HBSS/20 mM HEPES/0.5% BSA buffer.
After the incubation, both the cell and compound plates were brought to the FLIPR and 5 μl of the diluted compounds were transferred to the cell plates by the FLIPR. Plates were then incubated for 30 min at room temperature. After the ½ hour incubation, plates were returned to the FLIPR and 25 μl of 2.2×LTB4 was added to the cell plates. During the assay, fluorescence readings were taken simultaneously from all 384 wells of the cell plate every 1.5 seconds. Five readings were taken to establish a stable baseline, then 25 μl (LTB4) of sample was rapidly and simultaneously added to each well of the cell plate. The fluorescence was continuously monitored before, during and after sample addition for a total elapsed time of 100 seconds. Responses (increase in peak fluorescence) in each well following agonist addition was determined. The initial fluorescence reading from each well, prior to ligand stimulation, was used a zero baseline value for the data from that well. The responses are expressed as % inhibition of the neutral control (neural control: wells that received buffer plus DMSO but no test compound).

pIC50 | Structure (SMILES)
8.95 | CCOc1cc(OCCCCCCc2cccc(OCCCC(=O)O)c2CCC(=O)O)cc(-c2ccc3c(c2)OCCO3)c1 [Example 46, 4-[2-(2-Carboxy-ethyl)-3-{6-[3-(2,3-dihydro-benzo[1,4]dioxin-6-yl)-5-ethoxy-phenoxy]-hexyl}-phenoxy]-butyric acid]
8.19 | CCOCc1cc(OCCCCCCc2cccc(OCCCC(=O)O)c2CCC(=O)O)cc(-c2ccc(Cl)cc2)c1 [Example 28, 4-{2-(2-Carboxy-ethyl)-3-[6-(5-ethoxymethyl-4′-chloro-biphenyl-3-yloxy)-hexyl]-phenoxy}-butyric acid]
9.62 | CN(C)Cc1cc(OCCCCCCc2cccc(OCCCC(=O)O)c2CCC(=O)O)cc(-c2ccc(Cl)cc2)c1 [Example 34, 4-{2-(2-Carboxy-ethyl)-3-[6-(4′-chloro-5-dimethylaminomethyl-biphenyl-3-yloxy)-hexyl]-phenoxy}-butyric acid]
8.92 | CCOc1cc(OCCCCCCc2cccc(OCCCC(=O)O)c2CCC(=O)O)cc(-c2ccc3c(c2)OC(F)(F)O3)c1 [Example 57, 4-(2-(2-Carboxy-ethyl)-3-{6-[3-(2,2-difluoro-benzo[1,3]dioxol-5-yl)-5-ethoxy-phenoxy]-hexyl}-phenoxy)-butyric acid]
8.70 | CC(=O)c1cc(OCCCCCCc2cccc(OCCCC(=O)O)c2CCC(=O)O)cc(-c2ccsc2)c1 [Example 68, 4-[3-[6-(3-Acetyl-5-thiophen-3-yl-phenoxy)-hexyl]-2-(2-carboxy-ethyl)-phenoxy]-butyric acid]
6.47 | COCc1cc(OCCCCCCc2cccc(OCCCC(=O)O)c2CCC(=O)O)cc(-c2cncnc2)c1 [Example 22, 4-[2-(2-Carboxy-ethyl)-3-[6-(3-methoxymethyl-5-pyrimidin-5-yl-phenoxy)-hexyl]-phenoxy]-butyric acid]
7.64 | N#CCc1cc(OCCCCCCc2cccc(OCCCC(=O)O)c2CCC(=O)O)cc(-c2ccccc2)c1 [Example 42, 4-{2-(2-Carboxy-ethyl)-3-[6-(5-cyanomethyl-biphenyl-3-yloxy)-hexyl]-phenoxy}-butyric acid]
9.80 | Cc1ccc(-c2cc(CN(C)C)cc(OCCCCCCc3cccc(OCCCC(=O)O)c3CCC(=O)O)c2)cc1F [Example 35, 4-{2-(2-Carboxy-ethyl)-3-[6-(5-dimethylaminomethyl-3′-fluoro-4′-methyl-biphenyl-3-yloxy)-hexyl]-phenoxy}-butyric acid]
8.08 | CCOc1cc(OCCCCCCc2cccc(OCCCC(=O)O)c2CCC(=O)O)cc(-c2ccc(F)c(F)c2)c1 [Example 50, 4-[2-(2-Carboxy-ethyl)-3-[6-(3′,4′-difluoro-5-ethoxy-biphenyl-3-yloxy)-hexyl]-phenoxy]-butyric acid]
8.79 | COCc1cc(OCCCCCCc2cccc(OCCCC(=O)O)c2CCC(=O)O)cc(-c2ccc(C(F)(F)F)cc2)c1 [Example 17, 4-{2-(2-Carboxy-ethyl)-3-[6-(5-methoxymethyl-4′-trifluoromethyl-biphenyl-3-yloxy)-hexyl]-phenoxy}-butyric acid]
9.85 | CN(C)Cc1cc(OCCCCCCc2cccc(OCCCC(=O)O)c2CCC(=O)O)cc(-c2cccc(F)c2)c1 [Example 36, 4-{2-(2-Carboxy-ethyl)-3-[6-(5-dimethylaminomethyl-3′-fluoro-biphenyl-3-yloxy)-hexyl]-phenoxy}-butyric acid]
7.15 | CN(C)Cc1cc(OCCCCCCc2cccc(OCCCC(=O)O)c2CCC(=O)O)cc(-c2cccc(S(C)(=O)=O)c2)c1 [Example 39, 4-{2-(2-Carboxy-ethyl)-3-[6-(5-dimethylaminomethyl-3′-methanesulfonyl-biphenyl-3-yloxy)-hexyl]-phenoxy}-butyric acid]
8.97 | CCOCc1cc(OCCCCCCc2cccc(OCCCC(=O)O)c2CCC(=O)O)cc(-c2ccc3c(c2)OCO3)c1 [Example 25, 4-[3-[6-(3-Benzo[1,3]dioxol-5-yl-5-ethoxymethyl-phenoxy)-hexyl]-2-(2-carboxy-ethyl)-phenoxy]-butyric acid]
7.47 | CCOc1cc(OCCCCCCc2cccc(OCCCC(=O)O)c2CCC(=O)O)cc(-c2ccc3[nH]ccc3c2)c1 [Example 54, 4-[2-(2-Carboxy-ethyl)-3-{6-[3-ethoxy-5-(1H-indol-5-yl)-phenoxy]-hexyl}-phenoxy]-butyric acid]
9.43 | CN(C)Cc1cc(OCCCCCCc2cccc(OCCCC(=O)O)c2CCC(=O)O)cc(-c2ccc(C(F)(F)F)cc2)c1 [Example 37, 4-{2-(2-Carboxy-ethyl)-3-[6-(5-dimethylaminomethyl-4′-trifluoromethyl-biphenyl-3-yloxy)-hexyl]phenoxy}-butyric acid]
8.03 | COCc1cc(OCCCCCCc2cccc(OCCCC(=O)O)c2CCC(=O)O)cc(-c2cccc(OC)c2)c1 [Example 19, 4-{2-(2-Carboxy-ethyl)-3-[6-(3′-methoxy-5-methoxymethyl-biphenyl-3-yloxy)-hexyl]-phenoxy}-butyric acid]
8.10 | O=C(O)CCCOc1cccc(CCCCCCOc2cc(OCC3CCCC3)cc(-c3ccsc3)c2)c1CCC(=O)O [Example 62, 4-[2-(2-Carboxy-ethyl)-3-[6-(3-cyclopentylmethoxy-5-thiophen-3-yl-phenoxy)-hexyl]-phenoxy]-butyric acid]
9.49 | CCOc1cc(OCCCCCCc2cccc(OCCCC(=O)O)c2CCC(=O)O)cc(-c2ccc3scnc3c2)c1 [Example 56, 4-[3-{6-[3-Benzothiazol-5-yl-5-ethoxy-phenoxy]-hexyl}-2-(2-carboxy-ethyl)-phenoxy]-butyric acid]
8.90 | CCOc1cc(OCCCCCCc2cccc(OCCCC(=O)O)c2CCC(=O)O)cc(-c2ccccc2)c1 [Example 44, 4-[2-(2-Carboxy-ethyl)-3-[6-(5-ethoxy-biphenyl-3-yloxy)-hexyl]-phenoxy]-butyric acid]
7.11 | O=C(O)CCCOc1cccc(CCCCCCOc2cc(OCc3ccccc3)cc(-c3ccsc3)c2)c1CCC(=O)O [Example 61, 4-[3-[6-(3-Benzyloxy-5-thiophen-3-yl-phenoxy)-hexyl]-2-(2-carboxy-ethyl)-phenoxy]-butyric acid]
7.49 | O=C(O)CCCOc1cccc(CCCCCCOc2cc(OCC3CCCC3)cc(-c3cccc(F)c3)c2)c1CCC(=O)O [Example 63, 4-[2-(2-Carboxy-ethyl)-3-[6-(5-cyclopentylmethoxy-3′-fluoro-biphenyl-3-yloxy)-hexyl]-phenoxy]-butyric acid]
7.10 | CCOc1cc(OCCCCCCc2cccc(OCCCC(=O)O)c2CCC(=O)O)cc(-c2cncnc2)c1 [Example 53, 4-[2-(2-Carboxy-ethyl)-3-[6-(3-ethoxy-5-pyrimidin-5-yl-phenoxy)-hexyl]-phenoxy]-butyric acid]
8.68 | CCOc1cc(OCCCCCCc2cccc(OCCCC(=O)O)c2CCC(=O)O)cc(-c2ccc(S(C)(=O)=O)cc2)c1 [Example 51, 4-[2-(2-Carboxy-ethyl)-3-[6-(5-ethoxy-4′-methanesulfonyl-biphenyl-3-yloxy)-hexyl]-phenoxy]-butyric acid]
6.88 | O=C(O)CCCOc1cccc(CCCCCCOc2cc(OCc3ccccc3)cc(-c3cccc(F)c3)c2)c1CCC(=O)O [Example 59, 4-[3-[6-(5-Benzyloxy-3′-fluoro-biphenyl-3-yloxy)-hexyl]-2-(2-carboxy-ethyl)-phenoxy]-butyric acid]
7.93 | CCOCc1cc(OCCCCCCc2cccc(OCCCC(=O)O)c2CCC(=O)O)cc(-c2ccc(F)cc2)c1 [Example 26, 4-{2-(2-Carboxy-ethyl)-3-[6-(5-ethoxymethyl-4′-fluoro-biphenyl-3-yloxy)-hexyl]-phenoxy}-butyric acid]
8.51 | O=C(O)CCCOc1cccc(CCCCCCOc2cc(CO)cc(-c3ccc4c(c3)OCO4)c2)c1CCC(=O)O [Example 1, 4-[3-[6-(3-Benzo[1,3]dioxol-5-yl-5-hydroxymethyl-phenoxy)-hexyl]-2-(2-carboxy-ethyl)-phenoxy]-butyric acid]
8.71 | COCc1cc(OCCCCCCc2cccc(OCCCC(=O)O)c2CCC(=O)O)cc(-c2ccccc2)c1 [Example 9, 4-{2-(2-Carboxy-ethyl)-3-[6-(5-methoxymethyl-biphenyl-3-yloxy)-hexyl]-phenoxy}-butyric acid]
10.00 | CN(C)Cc1cc(OCCCCCCc2cccc(OCCCC(=O)O)c2CCC(=O)O)cc(-c2ccc3c(c2)OCO3)c1 [Example 30, 4-[3-[6-(3-Benzo[1,3]dioxol-5-yl-5-dimethylaminomethyl-phenoxy)-hexyl]-2-(2-carboxy-ethyl)-phenoxy]-butyric acid]
